Reference: patent publication US8691753B2 (priority 2009, dated 2014)
Read-outs that look alike come from different tables or passages of the source.

Key:
Type in all cases: biochemical
[1] = target: MMP-2h (Homo sapiens (Human), UniProt P08253); assay: Inhibition constant (Ki) on MMP-2h; details: human MMP-2
Method in brief: (§1)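 Protocol from prior literature applied; inhibition constants measured for human enzymes only.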

[2] = target: MMP-3h (Homo sapiens (Human), UniProt P08254); assay: Inhibition constant (Ki) on MMP-3h; details: human MMP-3
Method in brief: as §1

[3] = target: MMP-8h (Homo sapiens (Human), UniProt P22894); assay: Inhibition constant (Ki) on MMP-8h; details: human MMP-8
[4] = target: MMP-9h (Homo sapiens (Human), UniProt P14780); assay: Inhibition constant (Ki) on MMP-9h; details: human MMP-9
Method in brief: as §1

[5] = target: MMP-10h (Homo sapiens (Human), UniProt P09238); assay: Inhibition constant (Ki) on MMP-10h; details: human MMP-10
[6] = target: MMP-12h (Homo sapiens (Human), UniProt P39900); assay: Inhibition constant (Ki) on MMP-12h; details: human MMP-12
[7] = target: MMP-13h (Homo sapiens (Human), UniProt P45452); assay: Inhibition constant (Ki) on MMP-13h; details: human MMP-13
Method in brief: as §1

[8] = target: MMP-14h (Homo sapiens (Human), UniProt P50281); assay: Inhibition constant (Ki) on MMP-14h; details: human MMP-14
Method in brief: as §1

Sequence of MMP-9h (P14780 94-707): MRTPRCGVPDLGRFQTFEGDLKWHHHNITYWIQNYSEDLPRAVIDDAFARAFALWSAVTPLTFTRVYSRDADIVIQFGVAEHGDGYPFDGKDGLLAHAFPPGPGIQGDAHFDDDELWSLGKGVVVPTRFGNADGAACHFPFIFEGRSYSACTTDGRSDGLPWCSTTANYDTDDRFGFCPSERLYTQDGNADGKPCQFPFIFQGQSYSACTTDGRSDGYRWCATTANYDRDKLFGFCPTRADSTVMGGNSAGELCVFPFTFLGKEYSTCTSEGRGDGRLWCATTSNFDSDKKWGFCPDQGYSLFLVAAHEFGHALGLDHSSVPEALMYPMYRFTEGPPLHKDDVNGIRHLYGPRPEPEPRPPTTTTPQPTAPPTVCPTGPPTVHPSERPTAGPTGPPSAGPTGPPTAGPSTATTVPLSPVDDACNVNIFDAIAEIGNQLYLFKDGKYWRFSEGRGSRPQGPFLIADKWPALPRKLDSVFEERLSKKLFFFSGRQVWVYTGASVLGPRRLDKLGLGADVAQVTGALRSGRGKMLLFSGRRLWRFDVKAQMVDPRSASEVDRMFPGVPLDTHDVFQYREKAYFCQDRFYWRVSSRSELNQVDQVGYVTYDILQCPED
Sequence of MMP-12h (P39900 106-470): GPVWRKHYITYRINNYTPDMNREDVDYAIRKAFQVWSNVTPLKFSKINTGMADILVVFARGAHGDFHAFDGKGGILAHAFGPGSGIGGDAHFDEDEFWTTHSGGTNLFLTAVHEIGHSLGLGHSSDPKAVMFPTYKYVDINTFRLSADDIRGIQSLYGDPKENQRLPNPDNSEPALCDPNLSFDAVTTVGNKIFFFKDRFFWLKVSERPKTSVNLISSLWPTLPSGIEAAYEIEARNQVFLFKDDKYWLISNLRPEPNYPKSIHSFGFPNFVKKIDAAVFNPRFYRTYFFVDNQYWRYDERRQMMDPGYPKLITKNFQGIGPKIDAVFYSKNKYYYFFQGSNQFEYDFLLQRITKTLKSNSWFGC
Sequence of MMP-2h (P08253 110-660): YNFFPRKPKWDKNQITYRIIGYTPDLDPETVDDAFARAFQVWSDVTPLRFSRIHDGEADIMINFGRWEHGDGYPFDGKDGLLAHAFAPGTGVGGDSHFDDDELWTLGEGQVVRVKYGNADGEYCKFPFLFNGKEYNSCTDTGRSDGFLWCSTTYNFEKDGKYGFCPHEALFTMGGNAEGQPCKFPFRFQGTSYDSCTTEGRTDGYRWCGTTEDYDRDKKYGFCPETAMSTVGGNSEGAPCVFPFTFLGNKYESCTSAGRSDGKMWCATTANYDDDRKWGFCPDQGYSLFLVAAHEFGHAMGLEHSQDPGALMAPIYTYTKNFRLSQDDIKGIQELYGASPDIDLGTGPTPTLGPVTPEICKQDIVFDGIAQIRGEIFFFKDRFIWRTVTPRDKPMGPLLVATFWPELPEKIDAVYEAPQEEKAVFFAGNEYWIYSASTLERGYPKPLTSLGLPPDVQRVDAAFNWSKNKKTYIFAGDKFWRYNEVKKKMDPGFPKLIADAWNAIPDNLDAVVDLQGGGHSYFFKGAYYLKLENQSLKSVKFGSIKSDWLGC
Sequence of MMP-8h (P22894 101-467): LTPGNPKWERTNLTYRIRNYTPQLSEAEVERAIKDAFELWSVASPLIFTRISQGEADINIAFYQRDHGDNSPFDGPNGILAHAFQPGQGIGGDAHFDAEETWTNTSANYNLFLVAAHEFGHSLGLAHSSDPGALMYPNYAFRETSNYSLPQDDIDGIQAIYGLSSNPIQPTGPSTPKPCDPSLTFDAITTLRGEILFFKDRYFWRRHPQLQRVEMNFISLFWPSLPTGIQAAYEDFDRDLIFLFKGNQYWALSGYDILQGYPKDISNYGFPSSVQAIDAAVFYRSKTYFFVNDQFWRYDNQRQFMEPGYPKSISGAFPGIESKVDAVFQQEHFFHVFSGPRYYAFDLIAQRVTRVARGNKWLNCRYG
Sequence of MMP-10h (P09238 99-476): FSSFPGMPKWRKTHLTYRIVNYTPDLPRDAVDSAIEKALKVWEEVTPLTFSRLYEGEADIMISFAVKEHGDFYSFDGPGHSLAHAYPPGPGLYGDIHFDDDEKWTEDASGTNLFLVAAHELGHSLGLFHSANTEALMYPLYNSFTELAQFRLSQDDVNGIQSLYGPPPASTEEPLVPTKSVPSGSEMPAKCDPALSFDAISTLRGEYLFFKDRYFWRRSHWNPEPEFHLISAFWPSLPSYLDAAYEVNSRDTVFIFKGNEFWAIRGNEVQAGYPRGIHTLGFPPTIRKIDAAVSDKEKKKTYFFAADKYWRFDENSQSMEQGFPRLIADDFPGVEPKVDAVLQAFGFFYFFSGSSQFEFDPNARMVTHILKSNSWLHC
Sequence of MMP-3h (P08254 100-477): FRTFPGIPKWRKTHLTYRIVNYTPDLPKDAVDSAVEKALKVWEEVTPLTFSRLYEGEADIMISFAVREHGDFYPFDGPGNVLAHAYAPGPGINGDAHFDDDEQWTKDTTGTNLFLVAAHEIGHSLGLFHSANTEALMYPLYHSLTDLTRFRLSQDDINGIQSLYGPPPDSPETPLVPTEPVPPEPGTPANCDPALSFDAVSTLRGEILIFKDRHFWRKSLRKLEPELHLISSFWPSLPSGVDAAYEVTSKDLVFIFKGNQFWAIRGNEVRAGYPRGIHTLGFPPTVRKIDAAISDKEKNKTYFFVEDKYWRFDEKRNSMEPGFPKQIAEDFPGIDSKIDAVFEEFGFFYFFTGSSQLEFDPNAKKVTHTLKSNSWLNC

Row | Structure (SMILES) | Ki ([1]; read-out: Ki MMP-2h) [nM] | Ki ([2]; read-out: Ki MMP-3h) [nM] | Ki ([3]; read-out: Ki MMP-8h) [nM] | Ki ([4]; read-out: Ki MMP-9h) [nM] | Ki ([5]; read-out: Ki MMP-10h) [nM] | Ki ([6]; read-out: Ki MMP-12h) [nM] | Ki ([7]; read-out: Ki MMP-13h) [nM] | Ki ([8]; read-out: Ki MMP-14h) [nM] | Ki [1] [nM] | Ki [2] [nM] | Ki [3] [nM] | Ki [4] [nM] | Ki [5] [nM] | Ki [6] [nM] | Ki [7] [nM] | Ki [8] [nM]
1 | Cc1ccsc1-c1ccc(CCC(=O)N[C@@H](CCC(=O)O)C(=O)N[C@@H](CCC(=O)O)C(N)=O)cc1 [Compound 107, (S)-5-amino-4-((S)-4-carboxy-2-(3-(4-(3-methylthiophen-2-yl)phenyl)propanamido)butanamido)-5-oxopentanoic acid] | > 1000 | > 10000 | 766 | > 10000 | > 1000 | 84 | > 1000 | > 5000 | – | – | – | – | – | – | – | –
2 | NC(=O)[C@H](CC(=O)O)NC(=O)[C@H](CCC(=O)O)NC(=O)CCc1ccc(-c2ccccc2)cc1 [Compound 45, (S)-5-((S)-1-amino-3-carboxy-1-oxopropan-2-ylamino)-4-(3-(biphenyl-4-yl)propanamido)-5-oxopentanoic acid] | 896 | > 5000 | 233 | > 1000 | > 1000 | 37 | > 1000 | > 5000 | – | – | – | – | – | – | – | –
3 | NC(=O)CC[C@H](NC(=O)[C@H](CCC(=O)O)NC(=O)CCc1ccc(-c2cccs2)cc1)C(N)=O [Compound 81, (S)-5-((S)-1,5-diamino-1,5-dioxopentan-2-ylamino)-5-oxo-4-(3-(4-(thiophen-2-yl)phenyl)propanamido)pentanoic acid] | 204 | > 10000 | 48 | > 1000 | 651 | 18.6 | 801 | > 1000 | – | – | – | – | – | – | – | –
4 | CC(C)C[C@H](NC(=O)[C@H](CCC(=O)O)NC(=O)CCc1ccc(-c2cccs2)cc1)C(N)=O [Compound 88, (S)-5-((S)-1-amino-4-methyl-1-oxopentan-2-ylamino)-5-oxo-4-(3-(4-(thiophen-2-yl)phenyl)propanamido)pentanoic acid] | 298 | > 10000 | 73 | > 1000 | > 1000 | 32 | > 1000 | > 1000 | – | – | – | – | – | – | – | –
5 | O=C(O)CC[C@H](NC(=O)CCc1ccc(-c2ccc(-c3ccccc3)cc2)cc1)C(=O)N1CCC[C@@H](CC(=O)O)C1 [Compound 70, (S)-5-((S)-3-(carboxymethyl)piperidin-1-yl)-4-(3-(4′-phenylbiphenyl-4-yl)propanamido)-5-oxopentanoic acid] | 12 | 231 | 105 | > 5000 | 421 | 4.7 | 17 | > 1000 | – | – | – | – | – | – | – | –
6 | NC(=O)[C@H](CC(=O)O)NC(=O)[C@H](CC(=O)O)NC(=O)CCc1cc(-c2ccc(-c3ccccc3)cc2)no1 [Compound 19, (S)-4-amino-3-((S)-2-(3-(3-(biphenyl-4-yl)isoxazol-5-yl)propanamido)-3-carboxypropanamido)-4-oxobutanoic acid] | 52 | 750 | > 1000 | > 1000 | 527 | 54 | 24 | > 1000 | – | – | – | – | – | – | – | –
7 | NC(=O)[C@H](CCC(=O)O)NC(=O)[C@H](CCCC(=O)O)NC(=O)CCc1cc(-c2ccc(-c3cccc(Cl)c3)cc2)no1 [Compound 11, (S)-6-((S)-1-amino-4-carboxy-1-oxobutan-2-ylamino)-5-(3-(3-(3′-chlorobiphenyl-4-yl)isoxazol-5-yl)propanamido)-6-oxohexanoic acid] | – | – | – | – | – | – | – | – | > 1000 | 302 | > 1000 | > 10000 | 556 | 254 | 191 | > 10000
8 | NC(=O)[C@H](CO)NC(=O)[C@H](CCC(=O)O)NC(=O)CCc1ccc(-c2cccs2)cc1 [Compound 87, (S)-5-((S)-1-amino-3-hydroxy-1-oxopropan-2-ylamino)-5-oxo-4-(3-(4-(thiophen-2-yl)phenyl)propanamido)pentanoic acid] | 147 | > 10000 | 47 | > 1000 | 742 | 16.4 | > 1000 | > 1000 | – | – | – | – | – | – | – | –
9 | NC(=O)[C@H](CCC(=O)O)NC(=O)[C@H](CCC(=O)O)NC(=O)CCc1ccc(COc2ccccc2)cc1 [Compound 29, (S)-5-amino-4-((S)-4-carboxy-2-(3-(4-(phenoxymethyl)phenyl)propanamido)butanamido)-5-oxopentanoic acid] | > 1000 | > 10000 | > 1000 | > 1000 | > 1000 | 469 | 117 | > 5000 | – | – | – | – | – | – | – | –
10 | CC(C)C[C@H](NC(=O)[C@H](CCC(=O)O)NC(=O)CCc1ccc(-c2ccccc2)cc1)C(N)=O [Compound 50, (S)-5-((S)-1-amino-4-methyl-1-oxopentan-2-ylamino)-4-(3-(biphenyl-4-yl)propanamido)-5-oxopentanoic acid] | > 1000 | > 50000 | 364 | > 5000 | > 5000 | 76 | > 1000 | > 5000 | – | – | – | – | – | – | – | –
11 | NC(=O)[C@H](CCC(=O)O)NC(=O)[C@H](CCCC(=O)O)NC(=O)CCc1ccc(-c2cc(-c3ccccc3)cs2)cc1 [Compound 102, (S)-6-((S)-1-amino-4-carboxy-1-oxobutan-2-ylamino)-6-oxo-5-(3-(4-(4-phenylthiophen-2-yl)phenyl)propanamido)hexanoic acid] | – | – | – | – | – | – | – | – | > 1000 | > 10000 | > 5000 | > 5000 | > 5000 | 56 | 635 | > 10000
12 | NC(=O)[C@H](CCC(=O)O)NC(=O)[C@H](CCC(=O)O)NC(=O)CCc1ccc(-c2ccc(-c3nc4ccccc4s3)s2)cc1 [Compound 93, (S)-5-amino-4-((S)-2-(3-(4-(5-(benzo[d]thiazol-2-yl)thiophen-2-yl)phenyl)propanamido)-4-carboxybutanamido)-5-oxopentanoic acid] | > 1000 | > 1000 | 307 | > 1000 | 38.8 | 17 | 33 | > 5000 | – | – | – | – | – | – | – | –
13 | NCCCC[C@H](NC(=O)[C@H](CCC(=O)O)NC(=O)CCc1ccc(-c2ccccc2)cc1)C(N)=O [Compound 44, (S)-4-(3-(biphenyl-4-yl)propanamido)-5-((S)-1,6-diamino-1-oxohexan-2-ylamino)-5-oxopentanoic acid] | > 1000 | > 10000 | 414 | > 5000 | > 5000 | 119 | > 1000 | > 5000 | – | – | – | – | – | – | – | –
14 | C[C@H](NC(=O)CCc1ccc(-c2ccc(-c3ccccc3)cc2)cc1)C(=O)N[C@@H](CCC(=O)O)C(N)=O [Compound 76, (S)-5-amino-4-((S)-2-(3-(4′-phenylbiphenyl-4-yl)propanamido)propanamido)-5-oxopentanoic acid] | 854 | 142 | > 1000 | > 5000 | > 10000 | 251 | 427 | > 5000 | – | – | – | – | – | – | – | –
15 | NC(=O)CC[C@H](NC(=O)CCc1ccc(-c2ccc(-c3ccccc3)cc2)cc1)C(=O)N[C@@H](CCC(=O)O)C(N)=O [Compound 72, (S)-5-amino-4-((S)-5-amino-2-(3-(4′-phenylbiphenyl-4-yl)propanamido)-5-oxopentanamido)-5-oxopentanoic acid] | – | – | – | – | – | – | – | – | 386 | 64 | > 1000 | > 5000 | > 1000 | 134 | 180 | > 5000
